Test results as given in patent US12220466B2, “Pharmaceutical formulation” (Cutting Edge Technology, LLC, priority 2016, dated 2025).

Assays:
[1] = system: gram-negative anaerobes and spirochetes; conditions: cited from earlier work
[2] = system: spirochetes and motile rods in subgingival plaques; conditions: up to 12 weeks; cited from earlier work
[3] = system: pocket epithelium; conditions: monkey, in vivo; cited from earlier work
[4] = system: pocket epithelium; conditions: cited from earlier work
[5] = system: periodontitis; experiment: Extensive in vivo administration of viscous tetracycline and 10% carbamide peroxide gel with mechanical debridement (Phase I-III)
Experimental: Each of the subjects had up to 6 or more recorded pocket sites, which can have up to 32 teeth and other parameters of periodontal disease recordings as well as health recordings in their patient records.
During Phase I treatments of periodontitis, a gel solution including 10% carbamide peroxide was applied directly to the periodontal pocket and pocket areas immediately followed by or preceded by 30-600 mg or more of pure topical tetracycline in powder or paste form, also applied directly to the pocket and pocket treatment areas together with the gel solution. The gel solution and the tetracycline were also applied to teeth directly. Tetracycline was added at intervals throughout the treatment. Treatment was performed on pockets from 3 mm up to 10 mm and more.
When pocket tissue was swollen, the 10% carbamide peroxide penetrated the deep pocket under the gum. The 10% carbamide peroxide was in the form of a viscous gel and was applied to the wound site or pocket using a periodontal probe, for example, or using a curet or scaler. For example, one or two drops from a squeeze-bottle applicator was applied to the end of end of a curette tip or scaler or was applied with a periodontal pocket measuring probe. The peroxide gel was also applied under artificial teeth and implants, for example under restorative bridges such as pontic areas, whether with implants or natural teeth. […]

What does the source list for `OCl` [sodium hypochlorite]?
duration of the decrease ([1]; in vivo): 30 to 90 days; number of gram-negative anaerobes and spirochetes ([1]; patients under 18 years, no scaling and root planing): significant decrease; percentages of spirochetes and motile rods versus scaling and root planing alone [2]: no difference at any time between therapies; time to nearly complete healing without irreparable damage [3]: 11 days; time to reformation of epithelial lining [3]: 3 days; time to removal of most of the necrotic layer [3]: 16 h; time to restoration of epithelial lining ([4]; in vivo): 7 days; removal of pocket epithelium (histological) ([4]; one minute application, neutralization, six curette strokes): complete removal of pocket epithelium with normal healing

For `CN(C)[C@@H]1C(O)=C(C(N)=O)C(=O)[C@@]2(O)C(O)=C3C(=O)c4c(O)cccc4[C@@](C)(O)[C@H]3C[C@@H]12` [tetracycline], which “in office patient complaints” value ([5]; in vivo) is on record?
Its value is “to taste, not pain”.

What about the “allergic reaction with topical use” value ([5]; patient population) of the same compound?
Its value is “No true allergic reaction”.
